What was measured:
D(3) dopamine receptor = D(3) dopamine receptor (Homo sapiens, UniProt P35462); test: Binding affinity to dopamine D3 receptor (unknown origin) by radioligand displacement assay
D(2) dopamine receptor = D(2) dopamine receptor (Homo sapiens, UniProt P14416); test: Binding affinity to dopamine D2S receptor (unknown origin) by radioligand displacement assay
Homo sapiens = species: Homo sapiens; test: Ratio of Ki for binding affinity to D2S (unknown origin) to Ki for binding affinity to D3R (unknown origin)

Sequence of D(3) dopamine receptor (P35462 whole entry): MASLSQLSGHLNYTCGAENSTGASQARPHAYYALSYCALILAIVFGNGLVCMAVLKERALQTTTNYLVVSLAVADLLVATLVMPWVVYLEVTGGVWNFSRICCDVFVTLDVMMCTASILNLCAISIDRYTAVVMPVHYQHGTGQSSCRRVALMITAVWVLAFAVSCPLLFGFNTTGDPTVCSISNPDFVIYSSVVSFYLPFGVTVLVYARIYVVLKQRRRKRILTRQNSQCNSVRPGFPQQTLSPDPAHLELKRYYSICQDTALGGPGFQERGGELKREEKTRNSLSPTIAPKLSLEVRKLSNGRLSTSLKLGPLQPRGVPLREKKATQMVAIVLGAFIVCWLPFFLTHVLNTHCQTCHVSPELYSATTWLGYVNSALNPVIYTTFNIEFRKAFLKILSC
Sequence of D(2) dopamine receptor (P14416 whole entry): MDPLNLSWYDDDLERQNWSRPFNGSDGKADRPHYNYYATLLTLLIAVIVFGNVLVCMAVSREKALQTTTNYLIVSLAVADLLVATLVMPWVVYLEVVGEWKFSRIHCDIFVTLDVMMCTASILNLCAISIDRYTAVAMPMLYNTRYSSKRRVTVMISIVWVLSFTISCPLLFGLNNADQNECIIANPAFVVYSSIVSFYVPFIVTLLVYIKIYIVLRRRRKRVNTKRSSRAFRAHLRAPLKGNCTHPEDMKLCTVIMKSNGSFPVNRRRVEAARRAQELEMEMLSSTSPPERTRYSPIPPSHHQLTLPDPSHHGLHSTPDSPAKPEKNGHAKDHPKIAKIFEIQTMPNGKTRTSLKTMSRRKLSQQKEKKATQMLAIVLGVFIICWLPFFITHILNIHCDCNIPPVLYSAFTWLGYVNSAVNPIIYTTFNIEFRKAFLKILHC

| Ki (D(3) dopamine receptor) | Ki (D(2) dopamine receptor) | Ratio Ki (Homo sapiens) | SMILES |
| --- | --- | --- | --- |
| 27.2 nM | 81.1 nM | 3 | COc1ccccc1N1CCN(CCCCNC2=CC=CC3=[N+]4[N+](=Cc5c(C)cc(C)n5[B-]4(F)F)[B-](F)(F)N23)CC1 |
| 22.5 nM | 328 nM | 14.6 | Cc1cc(C)n2c1C=[N+]1[N+](=C3C=CC=C(NCCCCN4CCN(c5cccc(Cl)c5Cl)CC4)N3[B-]1(F)F)[B-]2(F)F |
| 16.7 nM | 182 nM | 10.9 | COc1ccccc1N1CCN(CCCCNC2=CC=CC3=[N+]4[N+](=Cc5cc6ccccc6n5[B-]4(F)F)[B-](F)(F)N23)CC1 |
| 34.3 nM | 309 nM | 9.5 | CCc1c(C)c2n(c1C)[B-](F)(F)[N+]1=C3C=CC=C(NCCCCN4CCN(c5ccccc5OC)CC4)N3[B-](F)(F)[N+]1=C2 |
| 52.1 nM | 497 nM | 9 | CCc1c(C)c2n(c1C)[B-](F)(F)[N+]1=C3C=CC=C(NCCCCN4CCN(c5cccc(Cl)c5Cl)CC4)N3[B-](F)(F)[N+]1=C2 |
